Experimental data published in patent US5698535A, “SIN-1A cyclodextrin inclusion complexes” (priority 1994, dated 1997).
Where two headings read alike, the source gives them in different places.

Assays:
[1] = prior art; cited from earlier work
[2] = tested on: rabbit platelet rich plasma; assay: Inhibition of U-46619 induced platelet aggregation in rabbit platelet rich plasma; type: cell-based
Description: (§1) The platelet aggregation was studied in rabbit and human platelet rich plasma (J. Cardiovasc. Pharmacol. 14 suppl. 11; page 120, 1989). In each batch of platelet rich rabbit plasma 8 dose response curves were registered with the thromboxane mimetic U-46619 (0.25-4.0 μM) in the presence of 0, 10^-7, 10^-6 or 10^-5 moles of SIN-1A/βCD complex. The dose response curves were performed in random sequence.

[3] = tested on: human platelet rich plasma; assay: Inhibition of U46619 induced platelet aggregation in human citrate platelet rich plasma; type: cell-based
Description: as §1
Both amplitude and slope of the aggregation curve were evaluated.

[4] = known; SIN-1 in solid state, SIN-1A open-chain tautomer; cited from earlier work

CCN(CC)N(O)N=O [DEANO, diethylamine-nitric oxide adduct]
half-life [1]: about 2 minutes

N=c1c[n+](N2CCOCC2)[n-]o1 [SIN-1, 3-morpholino-sydnonimine]
IC50 ([2]; Oryctolagus cuniculus, rabbit platelet rich plasma, U46619 4 μM, n=7, read-out: pD2 (negative logarithm of concentration producing 50% inhibition) (converted)): 2.69 µM
IC50 ([3]; Table 4, amplitude of aggregation curve, read-out: pD2, 50% inhibition of aggregation, amplitude (converted)): 15.8 µM
IC50 ([3]; Table 4, slope of aggregation curve, read-out: pD2, 50% inhibition of aggregation, slope (converted)): 14.1 µM

N#CCN(N=O)N1CCOCC1 [SIN-1A, N-morpholino-N-nitrosoaminoacetonitrile]
stability [4]: extremely unstable

NCCCNCCCCN(CCCN)N(O)N=O [SPNO]
half-life [1]: 39 min

CCCCCC(O)/C=C/C1C2CC(CO2)C1C/C=C\CCCC(=O)O (stereo not shown) [U46619]
induction of platelet aggregation ([2]; thromboxane mimetic): concentration-related aggregation
